In patent publication US20060128662A1, “Novel compounds for treatment of obesity” (Novo Nordisk A/S, priority 2003, published 2006):
pEC50: −log10 of the molar value.

System: FSK-4 cells
Assay: Assay (I): Glucose utilisation in a human epithelia cell line (FSK4 cells), D-(6-3H(N))-glucose
Assay type: cell-based
Conditions: 24 hours incubation, Hill equation, read-out: GlucosFSK4 EC50
Experimental: Assay (I): Glucose Utilisation in a Human Epithelia Cell Line (FSK4 cells)
The ^3H-proton will first be released in the TCA cyclus and transported to the respiratory chain where it will be incorporated into water. The water is thereafter separated from the D-(6-^3H(N))-glucose by evaporation.
FSK-4 cells obtained from ATCC (Maryland, USA), are cultured in growth medium (McCoy's medium with the following addition 100 units/ml penicillin and streptomycin and 10% FCS (fetal calf serum)) at 37° C. and 5% CO2.
The cells are then incubated for another 24 hours at 37° C. and 5% CO2.
The half maximal concentration (EC50) and maximal efficacy (Emax) are calculated using the Hill equation in GraphPad Prism 3.0 (GraphPad software, Inc.). […] From the percentage increase in glucose utilisation the linear slope is calculated using the Michaelis-Menten equation.

Compound | pEC50
CC(C)(C)c1cc(/C=C(\C#N)S(=O)(=O)c2ccc(/C=C/c3ccccc3)cc2)cc(C(C)(C)C)c1O [Example 51, 3-(3,5-Di-tert-butyl-4-hydroxy-phenyl)-2-(4-styryl-benzenesulfonyl)-acrylonitrile] | 6.05
CC(C)CO/C=C/c1ccc(S(=O)(=O)/C(C#N)=C/c2cc(C(C)(C)C)c(O)c(C(C)(C)C)c2)cc1 [Example 52, 3-(3,5-Di-tert-butyl-4-hydroxy-phenyl)-2-[4-(2-isobutoxy-vinyl)-benzenesulfonyl]-acrylonitrile] | 6.00
